Experimental data as given in US20250351832A1, “PHYTOCHEMICALS AS BIOPESTICIDES AND BIOSTIMULANTS” (KAY BEE BIO ORGANICS PVT. LTD., priority 2024, published 2025).
Where two headings read alike, the source gives them in different places.

Experiments:
Thrips [1] = settings: Thrips on cotton leaves, dose 1 ml/gm/lit.
[2] = Table 13, descriptive; no test described; cited from earlier work
Helicoverpa armigera [3] = settings: Helicoverpa armigera 3rd instar on chickpea plants, dose 1 ml/gm/lit. spray
Aphid [4] = settings: Aphids on cotton plants, green house, dose 1 ml/gm/lit.
tomato seedlings = test: Response of tomato plants, greenhouse growth (Ex. 30); type: in vivo; settings: tomato seedlings, dose 1 ml/gm/lit
Alternaria alternata [5] = test: Alternaria leaf spot/blight on inoculated tomato plants (Ex. 28); type: in vivo; settings: tomato plants, Alternaria alternata; after 7 days; dose 1 ml/gm/lit
Mealy Bug [6] = settings: Mealy Bug on cotton leaves, dose 1 ml/gm/lit., 48 Hrs.
Alternaria alternata [7] = test: In vitro poisoned food technique against fungus (Ex. 20); type: cell-based; settings: poisoned food technique, PDA medium, dose 1 ml/gm/lit., after seven days
Helicoverpa armigera [8] = settings: Helicoverpa armigera on okra fruits, dose 1 ml/gm/lit., 72 Hrs.
Spodoptera litura [9] = settings: Spodoptera litura on castor leaves, dose 1 ml/gm/lit.
Mite [10] = settings: mite on okra plants, green house, dose 1 ml/gm/lit. spray
Thrips [11] = settings: thrips on cotton plants, greenhouse, dose 1 ml/gm/lit. spray
Spodoptera litura [12] = settings: Spodoptera litura 3rd instar on cabbage plants, dose 1 ml/gm/lit. spray
chili seedlings = test: Response of chili plants, greenhouse growth (Ex. 31); type: in vivo; settings: chili seedlings, dose 1 ml/gm/lit
Mealy Bug [13] = settings: mealy bug on cotton plants, green house, dose 1 ml/gm/lit. spray
Aphid [14] = settings: Dose 1 ml/gm/lit.
Mite [15] = settings: Dose 1 ml/gm/lit.
[16] = 48 hrs, corrected for water control
[17] = 72 hrs, corrected for water control
[18] = 10 insects/treatment, 4 replications

Parthenin
Total No. of dead insect at 48 Hrs. (Thrips [1]; 10 insects/treatment, 48 hrs after application): 4.75
% Mortality at 48 Hrs. (Thrips [1]; 48 hrs after application): 47.50%
% Corrected Mortality at 48 Hrs. (Thrips [1]; [16]): 40.00%
Antioxidant Activity - Mode of action [2]: Possesses antioxidant
Insecticidal Activities - Mode of action [2]: Antifeedant activity against
% Mortality at 72 Hrs. (Helicoverpa armigera [3]; 72 hrs after application): 35.00%
% Corrected Mortality at 72 Hrs. (Helicoverpa armigera [3]; [17]): 35.00%
Total No. of dead insect at 48 Hrs. (Aphid [4]; 10 insects/plant, 10 plants/treatment, 48 hrs): 57.50
% Mortality at 48 Hrs. (Aphid [4]; 48 hrs after application): 57.50%
% Corrected Mortality at 48 Hrs. (Aphid [4]; [16]): 50.00%
Plant Height 5th Day (tomato seedlings; 5th day after application): 6.64 cm
Stem Girth 5th Day (tomato seedlings; 5th day after application): 1.66 mm
Plant Height 10th Day (tomato seedlings; 10th day after application): 7.29 cm
Stem Girth 10th Day (tomato seedlings; 10th day after application): 2.22 mm
Plant Height % Increase over pre on 10th Day (tomato seedlings; 10th day): 29.95%
Stem Girth % Increase over pre on 10th Day (tomato seedlings; 10th day): 55.53%
Plant Height Pre (tomato seedlings; before application): 5.61 cm
Stem Girth Pre (tomato seedlings; before application): 1.43 mm
CCI 5th Day (tomato seedlings; 5th day after application): 13.95
CCI % Increase over pre on 10th Day (tomato seedlings; 10th day): 20.70%
Root Length (cm) 10th Day (tomato seedlings; 10th day): 4.05 cm
CCI 10th Day (tomato seedlings; 10th day after application): 14.87
Root Length % Increase over control (tomato seedlings; 10th day, vs water control): 21.63%
CCI Pre (tomato seedlings; pre-application baseline): 12.32
% Disease reduction over Control (Alternaria alternata [5]): 43.80%
Total No. of dead insect at 48 Hrs. (Mealy Bug [6]; [18]): 4.75
% Mortality at 48 Hrs. (Mealy Bug [6]): 47.50%
% Corrected Mortality at 48 Hrs. (Mealy Bug [6]; corrected for water control): 44.74%
Mean colony Diameter (mm) (Alternaria alternata [7]): 78.00 mm
% Inhibition of growth (Alternaria alternata [7]; vs untreated control): 11.36%
Total No. of dead insect at 72 Hrs. (Helicoverpa armigera [8]; [18]): 3.25
% Mortality at 72 Hrs. (Helicoverpa armigera [8]): 32.50%
% Corrected Mortality at 72 Hrs. (Helicoverpa armigera [8]; corrected for water control): 32.50%
Total No. of dead insect at 72 Hrs. (Spodoptera litura [9]; 10 insects/treatment, 72 hrs after application): 2.75
% Mortality at 72 Hrs. (Spodoptera litura [9]; 72 hrs after application): 27.50%
% Corrected Mortality at 72 Hrs. (Spodoptera litura [9]; [17]): 23.68%
% Mortality at 48 Hrs. (Mite [10]; 48 hrs after application): 22.50%
Total No. of dead insect at 48 Hrs. (Mite [10]; 48 hrs after application): 22.50
% Corrected Mortality at 48 Hrs. (Mite [10]; [16]): 18.42%
% Mortality at 48 Hrs. (Thrips [11]; 48 hrs after application): 45.00%
Total No. of dead insect at 48 Hrs. (Thrips [11]; 48 hrs after application): 45.00
% Corrected Mortality at 48 Hrs. (Thrips [11]; [16]): 38.89%
% Mortality at 72 Hrs. (Spodoptera litura [12]; 72 hrs after application): 27.50%
% Corrected Mortality at 72 Hrs. (Spodoptera litura [12]; [17]): 23.68%
CCI 5th Day (chili seedlings; 5th day after application): 14.50
Plant Height (cm) 5th Day (chili seedlings; 5th day after application): 6.13 cm
CCI % Increase over pre on 10th Day (chili seedlings; 10th day): 74.40%
Plant Height % Increase over pre on 10th Day (chili seedlings; 10th day): 52.29%
Root Lenght (cm) 10th Day (chili seedlings; 10th day): 3.12 cm
Stem Girth % Increase over pre on 10th Day (chili seedlings; 10th day): 38.18%
CCI 10th Day (chili seedlings; 10th day after application): 15.87
Plant Height (cm) 10th Day (chili seedlings; 10th day after application): 6.65 cm
Root Lenght % Increase over control (chili seedlings; 10th day, vs water control): 14.01%
CCI Pre (chili seedlings; pre-application baseline): 9.10
Plant Height (cm) Pre (chili seedlings; pre-application baseline): 4.37 cm
% Mortality at 48 Hrs. (Mealy Bug [13]; 48 hrs after application): 50.00%
Total No. of dead insect at 48 Hrs. (Mealy Bug [13]; 48 hrs after application): 50.00
% Corrected Mortality at 48 Hrs. (Mealy Bug [13]; [16]): 44.44%
Total No. of dead insect at 48 Hrs. (Aphid [14]; 10 insects/treatment, 4 replications, cotton leaves): 6.00
% Corrected Mortality at 48 Hrs. (Aphid [14]; 48 hrs): 54.29%
% Mortality at 48 Hrs. (Aphid [14]; 48 hrs): 60.00%
Total No. of dead insect at 48 Hrs. (Mite [15]; 10 insects/treatment, 4 replications, okra leaves): 3.25
% Corrected Mortality at 48 Hrs. (Mite [15]; 48 hrs): 27.03%
% Mortality at 48 Hrs. (Mite [15]; 48 hrs): 32.50%
